Assay results from the supplement of paper PMC11061612.

Tests used:
Assay in all cases: Bliss excess, mean over the matrix (fraction); higher = more synergy
[1] = tested on: SLVL (B-Cell Non-Hodgkin's Lymphoma)
In short: (§1)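 Bliss excess equals the observed combination effect minus the expected value EA + EB − EA·EB, where EA and EB are the effects of each agent alone. Combination Emax is the second-highest inhibition within the matrix. Inhibition was scaled from CellTiter-Glo 2.0 luminescence, with 0 set by vehicle wells and 1 by blank wells, after 72 hours of two-drug dosing of cells plated in 1536-well plates.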

[2] = tested on: ETK-1 (Biliary Tract Carcinoma)
In short: as §1

[3] = tested on: NCI-H1688 (Small Cell Lung Carcinoma)
In short: as §1

[4] = tested on: MEG-01 (Chronic Myelogenous Leukemia)
In short: as §1

[5] = tested on: SNG-M (Endometrial Carcinoma)
In short: as §1

[6] = tested on: EKVX (Non-Small Cell Lung Carcinoma)
In short: as §1

CS1 (Chondrosarcoma) = tested on: CS1 (Chondrosarcoma)
In short: as §1

[7] = tested on: GDM-1 (Acute Myeloid Leukemia)
In short: as §1

SK-MEL-1 (Melanoma) = tested on: SK-MEL-1 (Melanoma)
In short: as §1

[8] = tested on: NOMO-1 (Acute Myeloid Leukemia)
In short: as §1

[9] = tested on: JHH-6 (Hepatocellular Carcinoma)
In short: as §1

[10] = tested on: KG-1 (Acute Myeloid Leukemia)
In short: as §1

Row | SMILES | Bliss excess [1] | Bliss excess [2] | Bliss excess [3] | Bliss excess [4] | Bliss excess [5] | Bliss excess [6] | Bliss excess (CS1 (Chondrosarcoma)) | Bliss excess [7] | Bliss excess (SK-MEL-1 (Melanoma)) | Bliss excess [8] | Bliss excess [9] | Bliss excess [10]
1 | CN(C)CCCOc1ccc(-c2ccc3ncc4c(c3c2)n(C2CCOCC2)c(=O)n4C)cn1 [AZD0156] + C=CCn1c(=O)c2cnc(Nc3ccc(N4CCN(C)CC4)cc3)nc2n1-c1cccc(C(C)(C)O)n1 [AZD1775] (first compound max 1 µM, partner max 1 µM) | -0.0203 | -0.0096 | -0.0033 | 0.0032 | -0.0562 | -0.0358 | -0.0392 | -0.0566 | 0.0161 | 0.004 | -0.0798 | -0.0194
2 | Cc1c2c(nn1C)CSCc1cc(n(C)n1)CSc1cc(c3ccccc3c1)OCCCc1c(C(=O)O)n(C)c3c-2c(Cl)ccc13 [AZD5991] + C=CCn1c(=O)c2cnc(Nc3ccc(N4CCN(C)CC4)cc3)nc2n1-c1cccc(C(C)(C)O)n1 [AZD1775] (first compound max 1 µM, partner max 1 µM) | -0.0346 | 0.0386 | -0.0502 | -0.0401 | -0.0456 | 0.0335 | -0.0118 | 0.0207 | -0.0137 | -0.01 | -0.0647 | 0.0391
3 | CN(C)CCCOc1ccc(-c2ccc3ncc4c(c3c2)n(C2CCOCC2)c(=O)n4C)cn1 [AZD0156] + C[C@@H]1COCCN1C2=NC(=NC(=C2)C3(CC3)[S@](=N)(=O)C)C4=C5C=CNC5=NC=C4 [AZD6738] (first compound max 1 µM, 7x7, partner max 10 µM) | -0.0134 | 0.0294 | -0.0004 | 0.0001 | 0.0138 | -0.0388 | 0.0088 | -0.0439 | -0.0216 | 0.0095 | -0.01 | 0.128
4 | COc1cccc(OCCCN)c1-c1cc(Nc2cnc(C#N)cn2)n[nH]1 [Prexasertib] + C=CCn1c(=O)c2cnc(Nc3ccc(N4CCN(C)CC4)cc3)nc2n1-c1cccc(C(C)(C)O)n1 [AZD1775] (first compound max 1 µM, partner max 1 µM) | 0.0481 | 0.0651 | 0.186 | 0.0016 | 0.0698 | -0.024 | 0.0426 | 0.0096 | -0.0084 | 0.0539 | 0.0849 | 0.0038
5 | COc1cccc(OCCCN)c1-c1cc(Nc2cnc(C#N)cn2)n[nH]1 [Prexasertib] + Cc1cc2ncnn2cc1Nc1ncc2c(n1)n(C1CCOCC1)c(=O)n2C [AZD7648] (first compound max 1 µM, 7x7, partner max 10 µM) | 0.0204 | 0.059 | 0.0044 | -0.0363 | -0.0284 | -0.0474 | -0.0285 | -0.058 | -0.0247 | -0.0388 | 0.0194 | -0.0264
6 | Cc1c2c(nn1C)CSCc1cc(n(C)n1)CSc1cc(c3ccccc3c1)OCCCc1c(C(=O)O)n(C)c3c-2c(Cl)ccc13 [AZD5991] + CC1(C)CCC(CN2CCN(c3ccc(C(=O)NS(=O)(=O)c4ccc(NCC5CCOCC5)c([N+](=O)[O-])c4)c(Oc4cnc5[nH]ccc5c4)c3)CC2)=C(c2ccc(Cl)cc2)C1 [Venetoclax] (first compound max 1 µM, 7x7, partner max 1 µM) | 0.147 | -0.0526 | 0.105 | 0.105 | -0.027 | -0.0423 | -0.0418 | 0.174 | -0.0536 | 0.256 | -0.0417 | 0.119
7 | COc1cccc(OCCCN)c1-c1cc(Nc2cnc(C#N)cn2)n[nH]1 [Prexasertib] + C[C@@H]1COCCN1C2=NC(=NC(=C2)C3(CC3)[S@](=N)(=O)C)C4=C5C=CNC5=NC=C4 [AZD6738] (first compound max 1 µM, 7x7, partner max 10 µM) | -0.0455 | -0.0028 | 0.0117 | -0.0542 | 0.0329 | -0.0018 | -0.0111 | -0.0333 | -0.015 | -0.0147 | 0.0207 | -0.0531
8 | COc1cccc(OCCCN)c1-c1cc(Nc2cnc(C#N)cn2)n[nH]1 [Prexasertib] + CN(C)CCCOc1ccc(-c2ccc3ncc4c(c3c2)n(C2CCOCC2)c(=O)n4C)cn1 [AZD0156] (first compound max 1 µM, 7x7, partner max 1 µM) | 0.0036 | 0.0229 | 0.016 | -0.0411 | 0.0305 | -0.0039 | -0.0324 | -0.0491 | -0.0194 | -0.0154 | 0.0349 | -0.0289
